Read-outs that look alike come from different tables or passages of the source.

The nature of series [1]: Testing the feasibility of the deprotection of TCO compounds upon reaction with tetrazine. As to the method:
(§1) The feasibility to use the TCO group as a protective group in chemistry was studied by testing the stability of a range of TCO derivatives as model compounds under various conditions, and following the deprotection upon reaction with a tetrazine derivative under these conditions.
Typical Example for Testing the Feasibility of the Deprotection
The TCO stock solution (10 μL 25 mM in acetonitrile; 2.5*10^−7 mol) was added to a solution of the specific condition (100 μL). A solution of 3,6-dimethyl-1,2,4,5-tetrazine (8, 20 μL 25 mM in acetonitrile; 5.0*10^−7 mol) was added, and the mixture was stirred at the specific condition for a certain amount of time. The reaction was monitored by HPLC-MS/PDA analysis and/or GC-MS analysis, and the percentage of deprotection was estimated.
(§2) A) in acetonitrile with 5 equivalents of pyridine per TCO at 20° C.
(§3) B) in acetonitrile with 5 equivalents of DIPEA per TCO at 20° C.
(§4) C) in acetonitrile with 5 equivalents of piperidine per TCO at 20° C.
(§5) D) in acetonitrile with 5 equivalents of n-butylamine per TCO at 20° C.
(§6) E) in acetonitrile with 5 equivalents of 2-mercaptoethanol per TCO at 20° C.
(§7) F) in tetrahydrofuran with 5 equivalents of triphenylphosphine per TCO at 20° C.
(§8) G) in acetonitrile with 5 equivalents of DCC per TCO at 20° C.
(§9) H) in acetonitrile with 5 equivalents of PyBOP per TCO at 20° C.
(§10) I) in acetonitrile with 1 v % of formic acid at 20° C.
(§11) J) in chloroform at 20° C.
(§12) K) in chloroform with 1 v % of formic acid at 20° C.
(§13) L) in chloroform with 1 v % of trifluoroacetic acid at 20° C.
(§14) M) in chloroform with 10 v % of trifluoroacetic acid at 20° C.
(§15) N) in chloroform with 33 v % of trifluoroacetic acid at 20° C.
(§16) Z) in 25% acetonitrile in water at 20° C.

Assay in series [2]: as above
The conditions noted are these: 20° C.

Series [3] can be described thus: Testing the stability of a TCO compound under chemical conditions (HPLC-MS/PDA, GC-MS). Format: physicochemical. As to the method: as §1
Typical Example for Testing the Stability of a TCO Compound
The TCO stock solution (10 μL 25 mM; 2.5*10^−7 mol) was added to a solution of the specific condition (100 μL). The mixture was stirred at the specific condition for a certain amount of time, and then the fate of the TCO compound was monitored by HPLC-MS/PDA analysis and/or GC-MS analysis, and an estimation of its stability was made.
as §2, §3, §4, §5, §6, §7, §8, §9, §10, §11, §12, §13, §14, §15, §16

Series [4] is described as follows: Deprotection of N-TCO protective group (Example 6, 1H-NMR). The conditions noted are these: chloroform with trifluoroacetic acid; 3,6-dimethyl-1,2,4,5-tetrazine (8); 20° C. for 40 min. As to the method:
(N-TCO-6-aminohexyl) phenylcarbamate (5.61 mg; 1.44*10^−5 mol) was dissolved in chloroform (0.6 mL) and trifluoroacetic acid (20 mg; 1.75*10^−4 mol) was added. Subsequently, a solution of 3,6-dimethyl-1,2,4,5-tetrazine (8, 1.90 mg; 1.73*10^−5 mol) in chloroform (0.1 mL) was added. The pink, homogeneous mixture was stirred at 20° C. for 40 min. According to ^1H-NMR, more than 95% was deprotected. The reaction mixture was washed with aqueous potassium carbonate (0.5 mL 0.4 M), dried over sodium sulfate, filtered, and evaporated to dryness. The crude product was purified by preparative RP-HPLC and isolated by lyophilization to yield a white powder (2.31 mg; 68%). ^1H-NMR (DMSO-d6): δ=9.60 (s, 1H), 7.46 (d, 2H), 7.26 (t, 2H), 6.97 (t, 1H), 4.06 (t, 2H), 2.60 (t, 2H), 1.62 (m, 2H), 1.33 (m, 6H) ppm. ^13C-NMR (CDCl3): δ=153.6, 139.2, 128.7, 122.2, 118.1, 73.8, 64.1, 41.5, 33.3, 28.6, 26.1, 25.4 ppm. FT-IR (ATR): v=3343, 2939, 1707, 1542, 1448, 693 cm^−1. LC-MS: m/z=+237.17 [M+H]+(calcd 236.15 for C13H20N2O2).

Series [5] in a line: TCO-doxorubicin with uncoated and unmodified beads (comparison). The conditions noted are these: same conditions.
The nature of series [6]: Binding of TCO-protected doxorubicin to beads coated with BSA-tetrazine and doxorubicin release (HPLC). The conditions noted are these: for time to complete release of free doxorubicin from the beads / release of free doxorubicin from the beads: PBS, 37° C.; for release of free doxorubicin from the beads: after 3 h. As to the method: Tetrazine functionalization of a BSA-coated particle has been described in J. Nucl. Med. 2013, 54, 1989-1995. Briefly, a solution of BSA (bovine serum albumin; 0.7 mg) in PBS was mixed with a 10 mg/mL solution of a bis-pyridyl-tetrazine-NHS derivative in DMF (35 μL, 30 eq. with respect to BSA) and the pH was adjusted to 9.0 with 1 M sodium carbonate buffer. The solution (125 μL total) was incubated at room temperature for 30 min then the unreacted tetrazine was removed from the solution by using a Zeba desalting spin column (7 kDa MW cut-off) pre-washed with PBS. UV measurements confirmed the presence of 12 tetrazine moieties per BSA molecule.
The eluate containing BSA-tetrazine in PBS was added to a 350 μL suspension of polystyrene beads (Polybeads, 0.5 μm, Polysciences) in H2O and the resulting suspension was incubated at +4° C. for 1 h on an end-over-end rotating mixer (10 rpm). After incubation, the suspension of beads coated with BSA-tetrazine was centrifuged at 12,000 rpm for 4 min. The supernatant was carefully removed and the pellet was resuspended in 1.5 mL PBS by using a tip sonicator at low power (Sonics VibraCell, 4×5 sec pulses, 40% of power). The centrifuging-resuspension cycle was repeated 2 times, after which the bead pellet was resuspended in 200 μL PBS and reacted with 7 nmol of TCO-protected doxorubicin (TCO-3-Doxorubin, 1 mM in DMSO).
After 5 min incubation at 37° C. in a thermomixer (350 rpm), the beads were removed by centrifugation and the supernatant was analyzed by HPLC on an Agilent Techologies system (1100 series) equipped with a fluorescence detector with λhex=485 nm and λem=590 nm. The sample was loaded on an Eclipse XDB-C18 column (5 μm, 4.6×150 mm^2, Agilent) which was eluted isocratically with 30% (v/v) acetonitrile in H2O containing 0.1% TFA (v/v) at 1 mL/min. HPLC analysis of the supernatant confirmed that ca. 75% of TCO-doxorubicin was bound to the beads.
The bead pellet was resuspended in 1.5 mL PBS and centrifuged twice to eliminate unbound TCO-doxorubicin. Subsequently, the beads were resuspended in 400 μL PBS and incubated at 37° C. At various times, aliquots of the supernatant were analyzed by HPLC. The chromatographic profiles (FIG. 2) show release of free doxorubicin (Rt=6.2 min) from the beads with time (>45% after 3 h; complete within 24 h).

The target in another series is T1, streptavidin beads (Streptomyces avidinii, UniProt P22629).
T1 construct: purchased Invitrogen
Kind of series: Capture of 125I-Rtx-TCO-biotin with streptavidin beads (gamma counting). In kind it is binding. The conditions noted are these: 1 hour incubation. As to the method:
Rituximab (Rtx, 100 μg in 200 μL PBS, Roche) was radiolabeled with ^125I (Perkin Elmer) in a Pierce iodination tube (5 min incubation at room temperature) followed by size exclusion (SEC) purification (2 times, 0.5 mL Zeba desalting spin cartridge, 40 kDa MWCO, Pierce). Subsequently, non-radioactive Rtx was added to the solution (making 1 mg total Rtx), the pH was adjusted to 9 with 1 M sodium carbonate buffer and TCO-2-Biotin (3 eq., 5 mg/mL in DMSO) was added. The reaction mixture (200 μL) was incubated for 2 hours at 37° C. (350 rpm), purified once by SEC cartridge and then analyzed by SEC HPLC on an Agilent 1200 system equipped with a Gaby radioactive detector and UV detector and connected to a BioSep-SEC-S-3000 column (300×7.8 mm, 5 μm particles, Phenomenex) which was eluted at 1 mL/min with 0.1 M phosphate 0.15 M NaCl pH 6.8.
Subsequently, various amounts of ^125I-Rtx-TCO-biotin were combined with 1 mg streptavidin beads (Dynabeads MyOne Streptavidin Cl, Invitrogen) in 200 μL PBS and incubated for 1 hour at room temperature on a roller bench, to avoid bead settling. After incubation, the supernatants were removed and the beads were washed extensively with PBS.

Setting [7] is: 0.1 M HCOOH buffer, pH = 2.0 for 2 day, 20° C.
The mark [8] stands for this setting: 0.1 M NH3 buffer, pH = 11 for 5 day, 20° C.
Setting [9] is: 0.1 M NH4OAc buffer, pH = 7.0 for 5 day, 20° C.
The mark [10] stands for this setting: 0.1 M NH4OAc buffer, pH = 8.0 for 8 day, 20° C.
[11] abbreviates: 0.1 M NH4OAc buffer, pH = 10.0 for 8 day, 20° C.
The mark [12] stands for this setting: 10% MeCN in H2O at 70° C. for 5 day.
Setting [13] is: with 5 eq. of DIPEA in MeCN for 16 h, 20° C.
Setting [14] is: with 5 eq. of PyBOP in MeCN for 16 h, 20° C.

T1 sequence (P22629 25-183): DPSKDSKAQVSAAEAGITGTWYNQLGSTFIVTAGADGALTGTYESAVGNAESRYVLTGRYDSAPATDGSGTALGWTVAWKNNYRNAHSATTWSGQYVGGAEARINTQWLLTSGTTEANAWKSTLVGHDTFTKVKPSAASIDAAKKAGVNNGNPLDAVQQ

As for `COc1cc(COC(=O)NC2CC/C=C/CCC2N)cc(OC)c1OC` (centres unmarked), the “Deprotection (%)” value in series [1] (setting [7]) is listed as 0%; in series [1] (setting [8]), 87%; in series [1] (setting [9]), 0%; in series [1] (setting [10]), 0%; in series [1] (setting [11]) it was 81%; in series [1] (setting [12]), 50%. Moreover, the “Deprotection (%)” value in series [2] (0.1 M NH4OAc buffer, pH = 9.0 for 8 day) is listed as 25%; in series [2] (10% MeCN in H2O for 5 day), 0%. Besides, the “Stability of TCO” value in series [3] (setting [7]) is on record as “stable”; in series [3] (setting [9]) it was “stable”; in series [3] (setting [10]), “stable”; in series [3] (0.1 M NH4OAc buffer, pH = 9.0 for 8 day, 20° C.), “stable”; in series [3] (setting [11]) it was “stable”; in series [3] (10% MeCN in H2O for 5 day, 20° C.), “stable”. Further, the “Stability of TCO: cyclization” value in series [3] (setting [8]) and in series [3] (setting [12]) was less than 5% throughout.
In the case of `NC1CC/C=C/CCC1NC(=O)Oc1ccccc1` (centres unmarked), the “Deprotection (%)” value in series [1] (setting [13]) is given as 98.8%; in series [1] (setting [14]), 24.4%; in series [2] (with 5 eq. of HCOOH in MeCN for 16 h) it was 33.9%; in series [2] (with 5 eq. of pyridine in MeCN for 16 h), 71.7%. Also, the half-life in series [3] (0.1 M NH4OAc buffer, pH = 7.0, 20° C., read-out: Stability of TCO, t1/2) amounted to 80 h; in series [3] (0.1 M NH4OAc buffer, pH = 8.0, 20° C., read-out: Stability of TCO, t1/2), 17 h. The half-life at 2.3 mM in series [3] (0.1 M NH4OAc buffer, pH = 9.0, 20° C., read-out: Stability of TCO, t1/2) came to 5.3 h. In addition, the “Stability of TCO: cyclization” value in series [3] (setting [13]) is listed as 6.7%; in series [3] (with 5 eq. of HCOOH in MeCN for 16 h, 20° C.), 1.9%; in series [3] (setting [14]) it was 5.9%; in series [3] (with 5 eq. of pyridine in MeCN for 16 h, 20° C.), 2.6%.
`O=C(Nc1ccccc1)OCCCCCCNC(=O)OC1/C=C/CCCCC1` (centres unmarked) [(N-TCO-6-aminohexyl) phenylcarbamate]: the “deprotected according to 1H-NMR” value in series [4] is on record as “more than 95%”.
For the compound `COc1cccc2c1C(=O)c1c(O)c3c(c(O)c1C2=O)C[C@@](O)(C(=O)CO)C[C@@H]3O[C@H]1CC(NC(=O)OCc2ccc(OC(=O)N[C@@H]3CC/C=C/CC[C@@H]3N)cc2)[C@H](O)C(C)O1` (some centres unmarked) [TCO-3-Doxorubicin], the “non-specific proDox adsorption on the bead surface” value in series [5] is more than 95%. Moreover, the “TCO-doxorubicin bound to the beads” value in series [6] (BSA-tetrazine coated beads, 5 min incubation at 37° C., HPLC of supernatant) is given as “ca. 75%”. Also, in series [6], the “time to complete release of free doxorubicin from the beads” value was not above 24 h and the “release of free doxorubicin from the beads” value is reported as more than 45%.
Turning to `COc1cccc2c1C(=O)c1c(O)c3c(c(O)c1C2=O)C[C@@](O)(C(=O)CO)C[C@@H]3O[C@H]1C[C@H](N)[C@H](O)[C@H](C)O1` [doxorubicin, reference compound], in series [6], the “time to complete release of free doxorubicin from the beads” value is not above 24 h and the “release of free doxorubicin from the beads” value is on record as more than 45%.
“^125I-Rtx: Rituximab (Rtx, Roche) radiolabeled with 125I”: in the series with streptavidin beads, the “radioactivity bound to streptavidin beads” value was “almost no radioactivity was bound”.

Source of the values: patent US10927139B2, “Chemically cleavable group” (Tagworks Pharmaceuticals B.V., priority 2012, dated 2021).
